Assay [1] has as its target T1, Sts-2PGM (Mus musculus, UniProt Q3V3E1).
T1 sequence (Q3V3E1 354-624): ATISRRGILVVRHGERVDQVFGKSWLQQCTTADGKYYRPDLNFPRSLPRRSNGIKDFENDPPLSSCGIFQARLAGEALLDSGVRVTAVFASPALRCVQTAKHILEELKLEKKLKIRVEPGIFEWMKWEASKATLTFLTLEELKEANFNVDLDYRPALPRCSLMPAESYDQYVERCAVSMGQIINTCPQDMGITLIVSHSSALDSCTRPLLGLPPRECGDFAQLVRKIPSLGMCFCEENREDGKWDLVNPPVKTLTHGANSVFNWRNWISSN
Put plainly: biochemical.

A further assay concerns the target T2, Sts-2PGM(E481V) (Mus musculus, UniProt Q3V3E1, E481V).
T2 sequence (Q3V3E1 354-624 E481V): T1 sequence (Q3V3E1 354-624) with E128V
Description: pNPP hydrolysis by Sts-2PGM. It counts as biochemical. Particulars: substrate pNPP.

The target in another assay is Sts-1PGM (Mus musculus, UniProt Q8BGG7). Description: pNPP hydrolysis by Sts-1PGM. Type of assay: biochemical. Conditions: substrate pNPP.
In assay [2] the target is T1, Sts-2PGM. Put plainly: pNPP hydrolysis by wild-type Sts-2PGM. Type of assay: biochemical. Particulars: substrate pNPP, Sts-2PGM wild-type.
The target of another assay is T3, Sts-2PGM(A446S/S552A) (Mus musculus, UniProt Q3V3E1, A446S/S552A).
T3 sequence (Q3V3E1 354-624 A446S/S552A): T1 sequence (Q3V3E1 354-624) with A93S, S199A
Description: pNPP hydrolysis by Sts-2PGM. Type of assay: biochemical. Conditions: substrate pNPP, pH 7.5, relative to Sts-2PGM.

The next assay addresses T4, Sts-2PGM(S552A/S582Y) (Mus musculus, UniProt Q3V3E1, S552A/S582Y).
T4 sequence (Q3V3E1 354-624 S552A/S582Y): T1 sequence (Q3V3E1 354-624) with S199A, S229Y
Description: pNPP hydrolysis by Sts-2PGM. Type of assay: biochemical. Particulars: substrate pNPP.

Where a chain is given by its changes, count along the chain named.

Chain of Sts-1PGM (Q8BGG7 369-638 limits assumed): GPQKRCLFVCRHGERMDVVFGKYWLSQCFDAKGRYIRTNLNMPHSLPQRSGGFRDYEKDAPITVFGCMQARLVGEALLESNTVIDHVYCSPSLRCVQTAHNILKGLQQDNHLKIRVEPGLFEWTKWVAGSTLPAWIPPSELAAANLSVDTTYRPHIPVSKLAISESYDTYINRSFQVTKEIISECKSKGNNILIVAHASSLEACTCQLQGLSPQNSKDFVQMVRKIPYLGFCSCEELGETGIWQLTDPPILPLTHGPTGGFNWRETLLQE

`[O]=[W](=[O])([OH])[OH]` [tungstate, sodium tungstate]: at Sts-2PGM [1], the IC50 (usually the concentration needed to halve the response being measured) came out at 0.82 ± 0.1 mM and the affinity, expressed as Ki, was 0.54 ± 0.07 mM.
For `[O]=[V]([OH])([OH])[OH]` [vanadate, sodium vanadate] the same measures were 5.3 ± 3.3 mM and 3.55 ± 2.3 mM.
Turning to `O=[N+]([O-])c1ccc(OP(=O)(O)O)cc1` [pNPP, p-nitrophenyl phosphate], the relative activity on Sts-2PGM(E481V) (pH 5.0, relative to Sts-2PGM) is listed as 207%; at Sts-2PGM(E481V) (pH 7.5, relative to Sts-2PGM) it was 10%; on Sts-1PGM (pH 5.0, relative to Sts-2PGM), 210000%; at Sts-1PGM (pH 7.5, relative to Sts-2PGM), 9400%; on Sts-2PGM [2] (pH 5.0, relative to Sts-2PGM) it was 13.0%; at Sts-2PGM [2] (pH 7.5 (reference)), 1%. Further, the relative activity was 28% at Sts-2PGM(A446S/S552A) and 312% on Sts-2PGM(S552A/S582Y) (pH 5.0, relative to Sts-2PGM). Besides, the kcat (as a rule, the number of substrate molecules converted per active site and unit of time at saturation) at Sts-1PGM (pH 5.0, 37 °C) was 63.4 s⁻¹; at Sts-1PGM (pH 7.5, 37 °C) it was 70 s⁻¹; on Sts-2PGM [2] (pH 5.0, 37 °C), 0.3 s⁻¹; at Sts-2PGM(S552A/S582Y) (pH 5.0, 37 °C), 2.9 s⁻¹. Besides, the Km (in general, the concentration of substrate that gives half-maximal velocity) at Sts-2PGM(S552A/S582Y) (pH 5.0, 37 °C) stood at 600 µM.
On to `O=P(O)(O)O` [phosphate], for which, on Sts-2PGM [1], half-maximal inhibition (IC50) required 52 ± 6.2 mM and the Ki (in general, a measure of affinity in units of concentration, obtained from inhibition or displacement) worked out at 35.1 ± 4.1 mM.

The record behind these values is article PMC2880635 (Biochemistry, 2009).
